Experimental data from patent US7786136B2, “Indazole-carboxamide compounds” (Theravance, Inc., priority 2004, dated 2010).

Experiment: Pharmacokinetic study in the rat
Type: in vivo
Protocol: Pharmacokinetic Study in the Rat
Aqueous solution formulations of test compounds were prepared in 0.1% lactic acid at a pH of between about 5 and about 6. Male Sprague-Dawley rats (CD strain, Charles River Laboratories, Wilmington, Mass.) were dosed with test compounds via intravenous administration (IV) at a dose of 2.5 mg/kg or by oral gavage (PO) at a dose of 5 mg/kg. The dosing volume was 1 mL/kg for IV and 2 mL/kg for PO administration. Serial blood samples were collected from animals pre-dose, and at 2 (IV only), 5, 15, and 30 min, and at 1, 2, 4, 8, and 24 hours post-dose. Concentrations of test compounds in blood plasma were determined by liquid chromatography-mass spectrometry analysis (LC-MS/MS) (MDS SCIEX, API 4000, Applied Biosystems, Foster City, Calif.) with a lower limit of quantitation of 1 ng/mL.
Standard pharmacokinetic parameters were assessed by non-compartmental analysis (Model 201 for IV and Model 200 for PO) using WinNonlin (Version 4.0.1, Pharsight, Mountain View, Calif.). The maximum in the curve of test compound concentration in blood plasma vs. time is denoted Cmax. The area under the concentration vs. time curve from the time of dosing to the last measurable concentration (AUC(0-t)) was calculated by the linear trapezoidal rule. Oral bioavailability (F(%)), i.e. the dose-normalized ratio of AUC(0-t) for PO administration to AUC(0-t) for IV administration, was calculated as: F(%)=AUCPO/AUCIV×DoseIV/DosePO×100%

[1] = male Sprague-Dawley rats, blood plasma, IV 2.5 mg/kg or PO 5 mg/kg

CC(C)n1nc(C(=O)N[C@H]2C[C@H]3CC[C@@H](C2)N3CC(O)CN2CCN(C(=O)C3CCCO3)CC2)c2ccccc21 (stereo partly drawn) [Example 2, 1-isopropyl-1H-indazole-3-carboxylic acid((1S,3R,5R)-8-{2-hydroxy-3-[4-(tetrahydrofuran-2-carbonyl)piperazin-1-yl]propyl}-8-aza-bicyclo[3.2.1]oct-3-yl)amide]
AUC(0-t) [1]: 427 ng·h/mL | Cmax [1]: 55 ng/mL | oral bioavailability (F(%)) (rat, dose-normalized AUC(0-t) PO 5 mg/kg vs IV 2.5 mg/kg): about 30%
